Source: US10597388B2, “Pyridazinone herbicides” (FMC CORPORATION, priority 2014, dated 2020)

Columns and labels:
Format in all cases: in vivo
[1] = test system: sedge, umbrella (small-flower umbrella sedge, Cyperus difformis); experiment: Test B flooded paddy test; conditions: 250 g ai/ha, Flood, visual rating on scale of 0 to 100 where 0 is no effect and 100 is complete control, 13 to 15 d after treatment; for pest or weed control at 250 g/ha: Cyperus difformis, 360 h, read-out: Plant response rating, Sedge, Umbrella
How it was run: (§1)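 Plants at the 2-leaf stage were flooded to 3 cm above soil, and test compounds were applied directly into the paddy water, which was held at that depth throughout. After 13 to 15 d in a greenhouse, injury was rated visually against untreated controls on a 0–100 scale (0 no effect, 100 complete control).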

[2] = test system: ducksalad (Heteranthera limosa); experiment: Test B flooded paddy test; conditions: 250 g ai/ha, Flood, visual rating on scale of 0 to 100 where 0 is no effect and 100 is complete control, 13 to 15 d after treatment; for pest or weed control at 250 g/ha: Heteranthera limosa, 360 h, read-out: Plant response rating, Ducksalad
How it was run: as §1

[3] = test system: barnyardgrass (Echinochloa crus-galli); experiment: Test B flooded paddy test; conditions: 250 g ai/ha, Flood, visual rating on scale of 0 to 100 where 0 is no effect and 100 is complete control, 13 to 15 d after treatment; for pest or weed control at 250 g/ha: Echinochloa crus-galli, 360 h, read-out: Plant response rating, Barnyardgrass
How it was run: as §1

[4] = test system: rice (Oryza sativa); experiment: Test B flooded paddy test; conditions: 250 g ai/ha, Flood, visual rating on scale of 0 to 100 where 0 is no effect and 100 is complete control, 13 to 15 d after treatment; for plant injury at 250 g/ha: Oryza sativa, 360 h, read-out: Plant response rating, Rice
How it was run: as §1

[5] = test system: galium (catchweed bedstraw, Galium aparine); experiment: Test A greenhouse herbicide test, postemergence; conditions: for pest or weed control at 125 g/ha / pest or weed control at 500 g/ha: Galium, post-emergence, 240 h; for pest or weed control at 125 g/ha: read-out: Plant response rating, Galium; for pest or weed control at 500 g/ha: 0 is no effect, 100 is complete control, read-out: Galium plant response rating
How it was run: (§2)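 Plants grown in loam soil/sand blend pots were treated postemergence at 2 to 10 cm height, one- to two-leaf stage, with formulated test chemicals. After approximately 10 d in a greenhouse, injury was rated visually against untreated controls on a 0 to 100 scale (0 no effect, 100 complete control).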

[6] = test system: blackgrass (Alopecurus myosuroides); experiment: Test A greenhouse herbicide test, postemergence; conditions: for pest or weed control at 125 g/ha / pest or weed control at 500 g/ha: Alopecurus myosuroides, post-emergence, 240 h; for pest or weed control at 125 g/ha: read-out: Plant response rating, Blackgrass; for pest or weed control at 500 g/ha: read-out: Blackgrass plant response rating
How it was run: as §2

[7] = test system: kochia (Kochia scoparia); experiment: Test C greenhouse herbicide test, postemergence; conditions: Postemergence
How it was run: (§3)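 Visual injury scores (0–100, where 100 means complete control) were assigned 13 to 15 d after postemergence application, by comparison with untreated plants. Treated seedlings stood 2 to 18 cm tall, at the 1- to 4-leaf stage.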

[8] = test system: oat, wild (wild oat, Avena fatua); experiment: Test C greenhouse herbicide test, postemergence; conditions: Postemergence
How it was run: as §3

[9] = test system: chickweed (common chickweed, Stellaria media); experiment: Test C greenhouse herbicide test, postemergence; conditions: for Plant response rating, Chickweed: Postemergence
How it was run: as §3

[10] = test system: wheat (winter wheat, Triticum aestivum); experiment: Test C greenhouse herbicide test, pre- and postemergence
How it was run: (§4)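 Two application timings: at sowing into a soil/sand blend, and on 2–18 cm seedlings in peat-vermiculite potting mix. A non-phytotoxic, surfactant-containing solvent carried the compounds. Plants were compared with controls and rated visually on 0–100 after 13–15 d.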

[11] = test system: pigweed (Amaranthus retroflexus); experiment: as above
How it was run: as §4

[12] = test system: johnsongrass (Sorghum halepense); experiment: as above
How it was run: as §4

[13] = 125 g ai/ha, visual rating after approx. 10 d, 0 to 100 scale (0 no effect, 100 complete control)
[14] = 500 g ai/ha, 0 to 100 scale, 0 is no effect, 100 is complete control
[15] = 125 g ai/ha, 0 to 100 scale where 0 is no effect and 100 is complete control
[16] = 500 g ai/ha, visual rating after approx. 10 d, 0 to 100 scale (0 no effect, 100 complete control)
[17] = 31 g ai/ha, scale 0 to 100 (0 no effect, 100 complete control)
[18] = 125 g ai/ha, scale 0 to 100, 0 is no effect, 100 is complete control
[19] = 250 g ai/ha, scale 0 to 100, 0 no effect, 100 complete control, 13 to 15 d
[20] = Postemergence, 31 g ai/ha, scale 0 to 100 (0 no effect, 100 complete control)
[21] = Postemergence, 125 g ai/ha, scale 0 to 100, 0 is no effect, 100 is complete control
[22] = Postemergence, 250 g ai/ha, scale 0 to 100, 0 no effect, 100 complete control, 13 to 15 d
[23] = Preemergence, 31 g ai/ha, scale 0 to 100, 0 is no effect, 100 is complete control
[24] = Preemergence, 62 g ai/ha, scale 0 to 100, 0 is no effect, 100 is complete control
[25] = Preemergence, 125 g ai/ha, scale 0 to 100, 0 is no effect, 100 is complete control
[26] = Preemergence, 250 g ai/ha, scale 0 to 100, 0 no effect, 100 complete control
[27] = 125 g ai/ha, 0 to 100 scale, 0 no effect, 100 complete control

Compound	pest or weed control at 250 g/ha [1]	pest or weed control at 250 g/ha [2]	pest or weed control at 250 g/ha [3]	plant injury at 250 g/ha [4]	Plant response rating, Galium [5, 15]	Plant response rating, Galium [5, 16]	Plant response rating, Blackgrass [6, 15]	Plant response rating, Wheat [10, 23]	Plant response rating, Wheat [10, 24]	Plant response rating, Wheat [10, 25]	Wheat plant response rating [10, 26]	Plant response rating, Pigweed [11, 23]	Plant response rating, Pigweed [11, 24]	Plant response rating, Pigweed [11, 25]	Pigweed plant response rating [11, 26]	Plant response rating, Johnsongrass [12, 23]	Plant response rating, Johnsongrass [12, 24]	Plant response rating, Johnsongrass [12, 25]	Johnsongrass plant response rating [12, 26]	Plant response rating, Blackgrass [6, 16]	other results
Cc1nn(C)c(=O)c(-c2c(C)oc3cccc(C)c23)c1O [Compound 8, 4-(2,4-dimethyl-3-benzofuranyl)-5-hydroxy-2,6-dimethyl-3(2H)-pyridazinone]	70%	20%	30%	0%	–	–	–	–	–	–	–	–	–	–	–	–	–	–	–	–	–
Cc1ccc2oc(C)c(-c3c(OC(=O)C(C)(C)C)c(C)nn(C)c3=O)c2c1 [Compound 17, 5-(2,5-dimethyl-3-benzofuranyl)-1,6-dihydro-1,3-dimethyl-6-oxo-4-pyridazinyl 2,2-dimethylpropanoate]	0%	0%	0%	0%	–	–	–	–	–	–	–	–	–	–	–	–	–	–	–	–	pest or weed control at 125 g/ha [5, 13]: 50%; pest or weed control at 500 g/ha ([5]; 500 g ai/ha, 0 to 100 scale): 60%; pest or weed control at 125 g/ha [6, 13]: 10%; pest or weed control at 500 g/ha [6, 14]: 40%
Cc1cc(C)c2oc(C)c(-c3c(OC(=O)C(C)(C)C)c(C)nn(C)c3=O)c2c1 [Compound 18, 1,6-dihydro-1,3-dimethyl-6-oxo-5-(2,5,7-trimethyl-3-benzofuranyl)-4-pyridazinyl 2,2-dimethylpropanoate]	0%	30%	0%	0%	–	–	–	–	–	–	–	–	–	–	–	–	–	–	–	–	pest or weed control at 125 g/ha [5, 13]: 40%; pest or weed control at 500 g/ha ([5]; 500 g ai/ha, 0 to 100 scale): 60%; pest or weed control at 125 g/ha [6, 13]: 0%; pest or weed control at 500 g/ha [6, 14]: 20%
CC(=O)Oc1c(C)nn(C)c(=O)c1-c1c(C)sc2ccc(Cl)cc12 [Compound 108]	–	–	–	–	100	100	80	0	10	15	10	100	100	100	100	0	5	30	20	–	Blackgrass plant response rating [6, 14]: 90; Plant response rating, Kochia [7, 17]: 90; Plant response rating, Kochia [7, 18]: 95; Plant response rating, Kochia [7, 19]: 100; Plant response rating, Oat, Wild [8, 17]: 80; Plant response rating, Oat, Wild [8, 18]: 90; Plant response rating, Oat, Wild [8, 19]: 90; Plant response rating, Chickweed [9, 17]: 90; Plant response rating, Chickweed [9, 18]: 95; Plant response rating, Chickweed [9, 19]: 98; Chickweed plant response rating ([9]; postemergence, 62 g ai/ha, scale 0 to 100, 0 no effect, 100 complete control): 90; Plant response rating, Wheat [10, 20]: 0; Plant response rating, Wheat [10, 21]: 5; Plant response rating, Wheat [10, 22]: 10; Plant response rating, Pigweed [11, 20]: 90; Plant response rating, Pigweed [11, 21]: 98; Plant response rating, Pigweed [11, 22]: 98; Plant response rating, Johnsongrass [12, 20]: 0; Plant response rating, Johnsongrass [12, 21]: 5; Plant response rating, Johnsongrass [12, 22]: 5
CC(=O)Oc1c(Cl)nn(C)c(=O)c1-c1c(C)sc2ccc(Cl)cc12 [Compound 116]	–	–	–	–	70	100	30	0	0	5	15	95	100	100	100	0	0	0	10	70	Plant response rating, Sedge, Umbrella [1]: 70; Plant response rating, Ducksalad [2]: 50; Plant response rating, Barnyardgrass [3]: 0; Plant response rating, Rice [4]: 0
CCC(=O)Oc1c(OC)nn(C)c(=O)c1-c1c(C)sc2ccc(Cl)cc12 [Compound 131]	–	–	–	–	70	100	30	0	0	20	20	60	100	100	100	0	0	0	20	50	Plant response rating, Sedge, Umbrella [1]: 0; Plant response rating, Ducksalad [2]: 0; Plant response rating, Barnyardgrass [3]: 0; Plant response rating, Rice [4]: 0
CC(=O)Oc1c(Cl)nn(C)c(=O)c1-c1c(C)sc2ccc(C(F)(F)F)cc12 [Compound 152]	–	–	–	–	–	70	–	0	10	25	85	80	100	100	100	0	0	0	5	30	Plant response rating, Galium [5, 27]: 60; Plant response rating, Blackgrass [6, 27]: 20; Plant response rating, Sedge, Umbrella [1]: 0; Plant response rating, Ducksalad [2]: 0; Plant response rating, Barnyardgrass [3]: 0; Plant response rating, Rice [4]: 0
